These results are taken from patent publication US20250387504A1, “ANTIBODY-DRUG CONJUGATES OF ANTINEOPLASTIC COMPOUNDS AND METHODS OF USE THEREOF” (Novartis AG, priority 2022, published 2025).

What is called IC50 is the midpoint of a concentration-inhibition curve.

Some results are limits rather than exact numbers.

For one assay, the system named is WSU-DLCL2. Nature of the assay: CellTiter-Glo proliferation assay, CD48 MCL-1 and BCL-2 ADCs (Example 4). The note with it: Homo sapiens, WSUDLCL2, 120 h, read-out: WSU-DLCL2 IC50 (nM).
Assay [1] deals with cancer cell lines expressing CD48, CD74, EphA2, Her2 and PCAD. Put plainly: CellTiter-Glo proliferation assay, summary over the Example 6 cell lines. It counts as cell-based. The conditions noted are these: representative CD48 and CD74 cancer cell lines; read-out: IC50 values range. The method, then: (§1) The CD74 MCL-li and BCL-xLi antibody drug conjugates and the CD74 BCL-xL antibody drug conjugates were tested against two endogenous cancer cell lines. • Kasumi-6: ATCC No. CRL-2775 cultured in RPMI 1640 medium with 2 mM L-glutamine adjusted to contain 1.5 g/L sodium bicarbonate, 4.5 g/L glucose, 10 mMv HEPES, and 1.0 mM sodium pyruvate supplemented with 2 ng/ml human recombinant granulocyte macrophage colony stimulating factor (GM-CSF) and 20% FBS • EOL-1: DSMZ No. ACC-386 cultured in RPMI-1640+10% FBS
The EphA2 antibody drug conjugates were tested against one endogenous cancer cell line. • HCC-38: ATCC No. CRL-2314 cultured in RPMI-1640+10% FBS
(§2) The next day, free MCL-1 payload (P1), free BCL-xL payload (P5 and P6) and targeting MCL-1 and BCL-xL ADCs and targeting BCL-xL ADCs were prepared at 10X in standard growth media. […] Each drug concentration was tested in quadruplets.
(In ATP-based viability assays light output follows the ATP content of the culture.)

The test system of assay [2] is KMS-27. Put plainly: CellTiter-Glo proliferation assay, CD48 MCL-1/BCL-xL and BCL-xL ADCs (Example 6). Type of assay: cell-based. The conditions noted are these: Table 3 CD48 ADC, 5 days. The method, then: as §2
The subject of assay [3] is AMO-1. The assay is described as above. The conditions noted are these: Table 3 CD48 ADC, 5 days. It counts as cell-based. On the procedure: as §2
The test system of assay [4] is EOL-1. Nature of the assay: CellTiter-Glo proliferation assay, CD74 Milatuzumab MCL-1i and BCL2i ADCs (Example 5). It counts as cell-based. The conditions noted are these: EOL-1, 5 days, 0.008-150 nM. The method, then:
The CD74 Milatuzumab […] […] The next day, free MCL-1 payload (P1) and targeting MCL-1 and BCL-2 ADCs were prepared at 10X in standard growth media. […] Each drug concentration was tested in quadruplets.

For assay [5], the system named is EOL-1. Nature of the assay: CellTiter-Glo proliferation assay, CD74 MCL-1/BCL-xL and BCL-xL ADCs (Example 6). The note with it: Table 4 CD74 ADC, 5 days. Type of assay: cell-based. The method, then:
as §1, §2

A further assay concerns Kasumi-6. Described as above. Type of assay: cell-based. The note with it: Table 4 CD74 ADC, 5 days. On the procedure:
as §1, §2

A further assay concerns KMS-21-BM. Put plainly: CellTiter-Glo proliferation assay, CD48 MCL-1 and BCL-2 ADCs (Example 4). The conditions noted are these: 120 h, read-out: KMS-21-BM IC50 (nM).
A further assay relates to MOLP-8. Described as above. The conditions noted are these: Homo sapiens, MOLP-8, 120 h, read-out: MOLP-8 IC50 (nM).
Assay [6] concerns KMS-27. The description is as above. The note with it: KMS-27, 120 h, read-out: KMS-27 IC50 (nM).
Experimental: (§3) The ability of the MCL-1 and BCL-2 antibody drug conjugates to inhibit cell proliferation and survival was assessed using the Promega CellTiter-Glo® proliferation assay.
(§4) Cell lines were cultured in media that is optimal for their growth at 5% CO2, 37° C. in a tissue culture incubator. Prior to seeding for the proliferation assay, the cells were split at least 2 days before the assay to ensure optimal growth density. On the day of seeding, cell viability and cell density were determined using a cell counter (Vi-Cell XR Cell Viability Analyzer, Beckman Coulter). […] Cells were seeded at a density of 1,000 cells per well in 45 μL of standard growth media. Plates were incubated at 5% CO2, 37° C. overnight in a tissue culture incubator. The next day, free MCL-1 and BCL-2 payloads, targeting MCL-1 and BCL-2 ADCs, and non-targeting isotype ADCs free MCL-1 and BCL-2 payloads, were prepared at 10× in standard growth media. […] Each drug concentration was tested in quadruplets. Plates were incubated at 5% CO2, 37° C. for 5 days in a tissue culture incubator, after which cell viability was assessed through the addition of 25 L μof CellTiter Glo® (Promega, cat #G7573), a reagent which lyses cells and measures total adenosine triphosphate (ATP) content. Plates were incubated at room temperature for 10 minutes to stabilize luminescent signals prior to reading using a luminescence reader (EnVision Multilabel Plate Reader, PerkinElmer). To evaluate the effect of the drug treatments, luminescent counts from wells containing untreated cells (100% viability) were used to normalize treated samples. […] IC50 and Amax values were extrapolated from the resultant curves.
A further assay relates to RL. The assay is described as above. The note with it: Homo sapiens, 120 h, read-out: RL IC50 (nM).
The test system of a further assay is NCI-H929. Described as above. The conditions noted are these: Homo sapiens, NCI-H929, 120 h, read-out: NCI-H929 IC50 (nM).
Another assay concerns KHM-1B. Described as above. The conditions noted are these: 120 h, read-out: KHM-1B IC50 (nM).
The test system of a further assay is KE-97. Described as above. The conditions noted are these: KE-97, 120 h, read-out: Ke97 IC50 (nM).
Assay [7] relates to AMO-1. The description is as above. The conditions noted are these: Homo sapiens, AMO1, 120 h, read-out: AMO-1 IC50 (nM).
Experimental: as §3, §4

Experimental for KE-97: as §3, §4
Experimental for KHM-1B: as §3, §4
Experimental for KMS-21-BM: as §3, §4
Experimental for MOLP-8: as §3, §4
Experimental for NCI-H929: as §3, §4
Experimental for RL: as §3, §4
Experimental for WSU-DLCL2: as §3, §4

With `COc1ccccc1-c1nccc(COc2ccccc2C[C@@H](Oc2ncnc3sc(-c4ccc(F)cc4)c(-c4ccc(OCCN5CCN(C)CC5)c(Cl)c4C)c23)C(=O)O)n1` [P1], the IC50 with WSU-DLCL2 was 41.1 nM; in assay [1] it was 0.685 to 36 nM; in the assay on KMS-27 [2] (KMS-27, 120 h, 0.01-600 nM), 5.23 nM; in the assay with AMO-1 [3] (Homo sapiens, AMO1, 120 h, 0.01-600 nM), 3.8 nM; in the assay on EOL-1 [4] (Homo sapiens, EOL1, 120 h) it was 0.338 nM; with EOL-1 [5] (Homo sapiens, EOL1, 120 h, 0.01-600 nM), 0.685 nM. Moreover, the IC50 in the assay on Kasumi-6 (120 h, 0.01-600 nM) is 36 nM; in the assay on KMS-21-BM it was 1.66 nM; with MOLP-8 it was 6.17 nM; in the assay with KMS-27 [6] it was 13.3 nM; in the assay with RL, above 250 nM; with NCI-H929, 5.17 nM. Moreover, the figures for the IC50 with KHM-1B, with KE-97 and in the assay with AMO-1 [7] were 1.62 nM, above 250 nM and 4.7 nM, respectively. The “KMS-27 Amax (Span)” value in the assay on KMS-27 [2] was 96.7. Moreover, in the assay with AMO-1 [3], the “AMO-1 Amax (Span)” value stood at 95.8. For the same molecule, in the assay on EOL-1 [4], the “Amax (Span)” value came out at 88.6. Besides, in the assay on EOL-1 [5], the “EOL-1 Amax (Span)” value worked out at 98.4. The “Kasumi-6 Amax (Span)” value in the assay with Kasumi-6 is reported as 111.4.
